Laboratory results reported in article PMC4303869 (Scientific Reports, 2015).

Target: Aβ42 (amyloid β-protein 42) (Homo sapiens, UniProt P05067)
Test: ThT fluorescence fibrillogenesis assay
Format: biochemical

Aβ42 (amyloid β-protein 42), sequence (P05067 672-713): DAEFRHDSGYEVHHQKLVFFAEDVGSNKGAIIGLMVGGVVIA

IC50	SMILES
2.4 ± 0.4 µM	O=C(O[C@@H]1Cc2c(O)cc(O)cc2O[C@@H]1c1cc(O)c(O)c(O)c1)c1cc(O)c(O)c(O)c1 [EGCG]
1.5 ± 0.3 µM	Oc1ccc2c(c1)OC[C@]1(O)Cc3cc(O)c(O)cc3[C@H]21 [brazilin]
